Results as given in patent publication US20110130428A1, “Sublingual Compositions Comprising (2S) - (4E) -N-Methyl-5- (3- (5-Isopropoxypyridin) YL)-4-Penten-2-Amine” (ASTRAZENECA AB, priority 2008, published 2011).
Where two headings read alike, the source gives them in different places. Each block holds one compound with its values, some of them ahead of it.

Experiments:
[1] = male, beagle, dog, in vivo, 13 mg
Description: (§3) Two male Beagle dogs weighing 13-15 kg were used in the study. At one occasion the dogs were administered the sublingual composition under the tongue (i.e. as intended) and at the other occasion, after a washout period of 7 days, they were given the sublingual composition orally (i.e. into the stomach by gavage together with 40 ml of water).
(§4) The dogs were fasted overnight and until four hours after dose administration. Water was allowed ad lib until one hour before dosing and after three hours following dosing. To minimize the chance of swallowing during the sublingual study occasion, the dogs were anesthetized by intravenous bolus injection of Diprivan (10 mg/ml, AstraZeneca, Sweden) 0.8-1 ml/kg, followed by intubation, connection to a respiratory ventilator (Servo ventilator 900C, Siemens-Elema AB, Sweden) and capnograph (RespSense, MedAir AB, Sweden) and given additional anesthesia with 1.5% Isofluran (Isoba Vet., Schering-Plough AB, Sweden). The dogs were kept anesthetized for one hour after the administration of the sublingual composition under the tongue. The dogs were not anesthetized during the oral administration occasion.
(§5) Venous blood samples (2 mL) were collected before (0) and after 5, 15, 30, 45 minutes, 1.0, 1.5, 2.0, 3.0, 4.0, 6.0 and 8.0 hours after dosing. The samples were collected into vacuum tubes (BD Vacutainer K2-EDTA, Becton&Dickinson AB, Sweden), placed on ice and centrifuged for 10 minutes (4° C., 1500 g) within 30 minutes after sampling. The plasma was then transferred to 1.8 ml Nunc Cryo tubes (InterMed A/S, Denmark) and frozen (−20° C.) pending analysis.
(§6) The plasma samples (50 μL) were analyzed for Compound A and its metabolite Compound B by a standard LC-MS/MS analytical method. The determinations of the concentration of Compound A and Compound B in plasma was performed by liquid-liquid extraction followed by reversed-phase liquid chromatography and tandem mass spectrometry. Determinations of both Compound A and Compound B were performed in the range 0.8 to 200 nmol/L. Samples outside the range of determination were diluted up to 10 times. Quality control samples at three concentrations were interspersed with the study samples at 2.40, 16.0 and 160 nmol/L. The internal standard used in the assay was Deuterium labeled Compound A (AstraZeneca R&D, Sweden).
(§7) Exposure of animals to Compound A and it's metabolite Compound B expressed as area under the curve from time zero to the last sampling time, AUC(0-8 h), was obtained by means of non compartmental analysis in WinNonlin (version 4.0, Pharsight Corporation, USA). The maximum concentration, Cmax, and time of maximum concentration, Tmax, were direct observations from the plasma concentration versus time data. AUC(0-8 h) was calculated by means of the linear up-log down method. The area under the curve from zero to infinity, AUC, was calculated in a similar manner, with extrapolation from time of the last observed concentration, tlast, to infinity by adding the ratio of Cpred (predicted plasma concentration at tlast) and terminal slope factor. The terminal slope factor and subsequently the terminal half life (T1/2) were estimated in WinNonlin by log linear regression of the terminal phase (4 data points were used) of the plasma concentration time curve.

in vivo = details: male, beagle, dog, 13 mg; for AUC(0-t): AUC (0-8 h)
Description: as §3, §4, §5, §6, §7

[2] = Solubility / Biopharmaceutical Classification System (BCS) class; assay type: physicochemical
Description: (§1) Thus, the dissolution and intestinal permeability is not the reason for the observed high intersubject variability in plasma concentrations of Compound A.

[3] = Intestinal permeability (fraction of an oral dose absorbed); assay type: in vivo
Description: as §1

[4] = tested on: NNR subtypes that characterize the human ganglia; assay: Nicotinic function in adrenal chromaffin tissue; assay type: cell-based; details: ganglionic NNR subtypes
Description: (§2) It is advantageous that the treatment or prevention of diseases, disorders and conditions occurs without appreciable adverse side effects (e.g., significant increases in blood pressure and heart rate, significant negative effects upon the gastro-intestinal tract, and significant effects upon skeletal muscle). […] Thus, Compound A is capable of treating and/or preventing diseases, disorders and conditions without eliciting significant side effects associated with activity at ganglionic and neuromuscular sites.

muscle-type NNRs = assay: Nicotinic function in cell preparations expressing muscle-type NNRs; assay type: cell-based; details: skeletal muscle NNR
Description: as §2

[5] = Beagle dogs, cited from earlier work
[6] = dose range 2 to 320 mg, healthy volunteers; cited from earlier work
[7] = Animal study: plasma pharmacokinetics of Compound A and metabolite Compound B after sublingual or oral administration of the Compound A solid composition; details: for Cmax, relative difference in exposure sublingual compared to oral / AUC, relative difference in exposure sublingual compared to oral: 100*sublingual value/oral value; for AUC, relative difference in exposure sublingual compared to oral: AUC for Compound A; for AUC(0-t) / AUC / Cmax / Tmax / half-life / concentration at 5 min: male, beagle, dog, plasma, 13 mg; for AUC(0-t): AUC (0-8 h); for AUC(0-t) / AUC / Cmax / Tmax / half-life: Example 6 tablet; for AUC: zero to infinity; for half-life: T½; for concentration at 5 min: plasma concentration at 5 minutes
Description: as §3, §4, §5, §6, §7

[8] = Sublingual, Subject 1, anesthetized dog, 13 mg Compound A
[9] = Sublingual, Subject 2, anesthetized dog, 13 mg Compound A
[10] = po, Oral (gavage), Subject 1, dog, 13 mg Compound A
[11] = po, Oral (gavage), Subject 2, dog, 13 mg Compound A

Compound: CC(C)Oc1cncc(/C=C/C[C@H](C)N)c1 [Compound B, (4E)-5-(3-(5-isopropoxypyridin)yl)-4-penten-2-amine]
- AUC (0-8 h) [1]: 0.59 µM·h
- Cmax [1]: 110 nM
- Tmax [1]: 6 h
- decrease of exposure (Cmax, AUC 0-8 h) following sublingual compared to oral administration of Compound A [1]: 30-70%
- AUC (0-8 h) ([1]; po): 1 µM·h
- Cmax ([1]; po): 230 nM
- Tmax ([1]; po): 1 h
- AUC(0-t) (in vivo): 0.51 µM·h
- Cmax (in vivo): 99 nM
- Tmax (in vivo): 4 h
- AUC(0-t) (in vivo; po): 1 µM·h
- Cmax (in vivo; po): 210 nM
- Tmax (in vivo; po): 1.5 h

- Biopharmaceutical Classification System (BCS) class [2]: Class I
- solubility ([2]; highest dose strength is easily dissolved in 250 ml of aqueous media at all physiological pH values): very good solubility
- intestinal permeability: oral dose absorbed [3]: more than 90%
- Cmax, relative difference in exposure sublingual compared to oral ([7]; Subject 1, dog): 740 % difference
- AUC, relative difference in exposure sublingual compared to oral ([7]; Subject 1, dog): 550 % difference
- Cmax, relative difference in exposure sublingual compared to oral ([7]; Subject 2, dog): 510 % difference
- AUC, relative difference in exposure sublingual compared to oral ([7]; Subject 2, dog): 520 % difference
- AUC(0-t) [7, 8]: 2 µM·h
- AUC(0-t) [7, 9]: 1.5 µM·h
- AUC [7, 8]: 2.1 µM·h
- AUC [7, 9]: 1.5 µM·h
- Cmax [7, 8]: 1400 nM
- Cmax [7, 9]: 610 nM
- Tmax [7, 8]: 0.5 h
- Tmax [7, 9]: 1 h
- half-life [7, 8]: 1.3 h
- half-life [7, 9]: 1.4 h
- concentration at 5 min ([7]; other: sublingual, 5 minutes after sublingual administration, Subject 1, dog): ~200 nM
- concentration at 5 min ([7]; other: sublingual, 5 minutes after sublingual administration, Subject 2, dog): ~60 nM
- AUC(0-t) [7, 10]: 0.37 µM·h
- AUC(0-t) [7, 11]: 0.28 µM·h
- AUC [7, 10]: 0.38 µM·h
- AUC [7, 11]: 0.29 µM·h
- Cmax [7, 10]: 190 nM
- Cmax [7, 11]: 120 nM
- Tmax ([7]; po, Oral (gavage), Subject 1, dog, 13 mg (as base) Compound A hydroxybenzoate salt): 0.75 h
- Tmax [7, 11]: 1 h
- half-life [7, 10]: 1.3 h
- half-life [7, 11]: 1.3 h
- concentration at 5 min ([7]; po, 5 minutes after oral administration, Subject 1, dog): ~2 nM
- concentration at 5 min ([7]; po, 5 minutes after oral administration, Subject 2, dog): ~1.5 nM
Compound: CN[C@@H](C)C/C=C/c1cncc(OC(C)C)c1 [Compound A, (2S)-(4E)-N-methyl-5-(3-(5-isopropoxypyridin)yl)-4-penten-2-amine]
- ability to elicit nicotinic function in adrenal chromaffin tissue [4]: lack of ability to elicit nicotinic function
- ability to elicit nicotinic function in cell preparations expressing muscle-type NNRs (muscle-type NNRs): lack of ability to elicit nicotinic function
- oral bioavailability ([5]; oral): about 30%
- total plasma clearance relative to hepatic blood flow [5]: markedly higher than the hepatic blood flow
- degree of exposure after oral administration [6]: intersubject variability in the degree of exposure
